# Results as given in publication PMC3969230, “Structural and functional characterization of NanU, a novel high-affinity sialic acid-inducible binding protein of oral and gut-dwelling Bacteroidetes species” (Biochemical Journal, 2014).
# Several values for one entry are separate records, joined by “and”; a condition that tells them apart may be missing. Equal entries are not always repeated.
# Legend:
# NanU = assay: Steady-state tryptophan fluorescence titration, NanU (species not told apart); type: binding; conditions: for binding to NanU (in words): tryptophan fluorescence quenching
# Protocol: (§1) Proteins were diluted in 25 mM sodium phosphate buffer, pH 7.4, to a final concentration of 0.5 μM and incubated at 25°C for 5 min before substrate titration. The quenching of intrinsic tryptophan fluorescence was measured at 25°C with constant stirring in a 104F-QS quartz fluorescence semi-micro cell (Hellma Analytics) using a Varian Cary Eclipse spectrofluorometer. The excitation and emission wavelengths were 295 nm (5 nm slit width) and 330 nm (10 nm slit width) respectively. Corrections for background fluorescence changes due to dilution effects with the stepwise addition of ligands were made by buffer titrations. Analysis and curve fitting of titration data were performed in Prism 5 (GraphPad Software), with the equilibrium dissociation constants (Kd) for one site-specific binding calculated using eqn (1): (1) Y=Bmax×X/(Kd+X) where X is the final concentration of ligand, Y is the percentage increase in protein quenching in relation to the protein-only fluorescence signal and Bmax is the extrapolated maximum specific binding.
# BT1043 = test system: BT1043; parameters: method as in PMID 19191477; conditions: non-physiological ligand; cited from earlier work
# BF-NanU (BF1720) = BF-NanU (BF1720) (Bacteroides fragilis, UniProt Q5LEN2); assay: Steady-state tryptophan fluorescence titration, BF-NanU; type: binding
# Protocol: as §1
# TF-NanU (TF0034) = TF-NanU (TF0034) (Tannerella forsythia, UniProt G8UIQ0); assay: Steady-state tryptophan fluorescence titration, TF-NanU; conditions: 0.5 μM protein, 25 mM sodium phosphate pH 7.4, 25°C, one-site specific binding
# Protocol: as §1
# [1] = target: lectin domain of the Vibrio cholerae sialidase; parameters: method as in PMID 15226294; conditions: read-out: affinity; cited from earlier work
# SiaP = target: SiaP; parameters: method as in PMID 16702222; conditions: cited from earlier work
# SusD = test system: SusD; parameters: method as in PMID 18611383; conditions: non-physiological ligand; cited from earlier work
# [2] = 0.5 μM protein, 25 mM sodium phosphate pH 7.4, 25°C, one-site specific binding
# Sequence of BF-NanU (BF1720) (Q5LEN2 entry or part of it): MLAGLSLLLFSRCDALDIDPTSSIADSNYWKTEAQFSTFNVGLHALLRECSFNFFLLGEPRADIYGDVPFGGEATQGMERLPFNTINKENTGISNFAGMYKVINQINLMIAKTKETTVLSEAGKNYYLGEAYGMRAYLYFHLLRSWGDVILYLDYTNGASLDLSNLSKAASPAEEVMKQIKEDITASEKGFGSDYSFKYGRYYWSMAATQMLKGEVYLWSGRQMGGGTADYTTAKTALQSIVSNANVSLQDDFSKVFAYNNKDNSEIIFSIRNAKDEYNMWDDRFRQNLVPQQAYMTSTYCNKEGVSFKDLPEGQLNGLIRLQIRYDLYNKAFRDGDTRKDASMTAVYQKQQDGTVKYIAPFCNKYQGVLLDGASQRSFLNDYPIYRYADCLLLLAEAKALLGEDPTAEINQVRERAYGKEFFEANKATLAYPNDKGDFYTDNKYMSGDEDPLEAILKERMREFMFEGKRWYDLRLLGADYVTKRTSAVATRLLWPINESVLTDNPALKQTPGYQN
# Sequence of TF-NanU (TF0034) (G8UIQ0 entry or part of it): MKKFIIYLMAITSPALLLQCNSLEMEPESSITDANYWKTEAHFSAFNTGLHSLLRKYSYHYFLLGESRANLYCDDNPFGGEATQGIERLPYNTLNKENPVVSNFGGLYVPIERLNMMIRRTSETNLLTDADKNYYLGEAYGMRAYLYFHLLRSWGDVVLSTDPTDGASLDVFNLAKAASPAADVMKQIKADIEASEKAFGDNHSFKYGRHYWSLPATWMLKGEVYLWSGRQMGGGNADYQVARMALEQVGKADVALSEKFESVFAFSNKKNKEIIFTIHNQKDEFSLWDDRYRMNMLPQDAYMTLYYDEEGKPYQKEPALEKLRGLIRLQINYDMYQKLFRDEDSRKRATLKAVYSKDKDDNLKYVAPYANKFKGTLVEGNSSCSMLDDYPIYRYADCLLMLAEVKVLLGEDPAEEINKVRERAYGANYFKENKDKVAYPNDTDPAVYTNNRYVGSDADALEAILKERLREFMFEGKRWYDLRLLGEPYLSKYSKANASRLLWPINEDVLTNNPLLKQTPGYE
Molecule,binding to NanU (in words) (NanU),Kd (BF-NanU (BF1720); [2]),Kd (TF-NanU (TF0034)),also measured
CC(=O)NC1C(O)CC(OC2C(O)C(CO)OC(OC3C(CO)OC(O)C(O)C3O)C2O)(C(=O)O)OC1C(O)C(O)CO (stereo not shown) [3′-siallyl-lactose],did not display any interaction,,,
CC(=O)NC1C(O)CC(OCC2OC(OC3C(CO)OC(O)C(O)C3O)C(O)C(O)C2O)(C(=O)O)OC1C(O)C(O)CO (stereo not shown) [6′-siallyl-lactose],did not display any interaction,,,
CC(=O)N[C@H]1C(O)O[C@H](CO)[C@@H](O[C@@H]2O[C@H](CO)[C@H](O)[C@H](O)[C@H]2O)[C@@H]1O (stereo partly shown) [N-acetyl lactosamine],,,,binding interaction (range in words) (BT1043): in the mM range
"CC(=O)N[C@H]1[C@H]([C@H](O)[C@H](O)CO)OC(C(=O)O)=C[C@@H]1O [Neu5Ac2en, 2-deoxy-2,3-didehydro-Neu5Ac]",,5600 nM and 5550 nM,8300 nM and 8290 nM,
"CC(=O)N[C@H]1[C@H]([C@H](O)[C@H](O)CO)OC(O)(C(=O)O)C[C@@H]1O (stereo partly shown) [Neu5Ac, 5-N-acetylneuraminic acid]",,397 nM and 400 nM,425 nM and 400 nM,"Kd (BF-NanU (BF1720); BF-NanU expressed and purified from cells grown in M9 medium plus glycerol (results not shown)): 409 nM; Kd (NanU; NanU from two Bacteroidetes species, approximate summary value): ~400 nM; Kd [1]: 30000 nM; Kd (SiaP): 120 nM"
"O=C(CO)N[C@H]1[C@H]([C@H](O)[C@H](O)CO)O[C@](O)(C(=O)O)C[C@@H]1O [Neu5Gc, N-glycolylneuraminic acid]",,2000 nM and 1670 nM and 1700 nM,1700 nM and 1990 nM and 2000 nM,affinity lower than Neu5Ac (fold) (NanU; Neu5Gc compared with Neu5Ac): 5 fold
"CCOC(=O)C1=C[C@@H](OC(CC)CC)[C@H](NC(C)=O)[C@@H](N)C1 [Oseltamivir, oseltamivir]",No binding,,,binding to NanU (in words) (NanU; listed as oseltamivir): neither
"CC(=O)N[C@H]1NC[C@H](C(=O)O)[C@H](O)[C@@H]1O [Siastatin B, siastatin B]",No binding,,,binding to NanU (in words) (NanU; listed as siastatin B): neither
"CC(=O)N[C@H]1[C@H]([C@H](O)[C@H](O)CO)OC(C(=O)O)=C[C@@H]1N=C(N)N [Zanamivir, zanamivir]",,900 nM and 905 nM,1100 nM and 1130 nM,
cyclodextrin,,,,binding interaction (range in words) (SusD): in the hundreds of μM range
sialyl-lactose,does not bind,,,
